# Laboratory results reported in US9321773B2, “Compounds” (Respivert Ltd, priority 2009, dated 2016).
# Where two headings read alike, the source gives them in different places.
# How the values were obtained:
# recombinant PI3 kinase δ = recombinant PI3 kinase δ (Homo sapiens (Human), UniProt O00329); experiment: Enzyme Inhibition Assay (HTRF PI3K enzyme assay, TR-FRET); type: biochemical
# From the text: (§1) PI3 kinases catalyse the phosphorylation of phosphatidylinositol 4,5-biphosphate (PIP2) to phosphatidylinositol 3,4,5-triphosphate (PIP3) in the presence of ATP and Mg^2+ ions. The PIP3 product can be detected by displacement of biotin-PIP3 from energy transfer complexes consisting of europium labelled anti-GST monoclonal antibody, a GST-tagged Pleckstrin homology (PH) domain, biotinylated PIP3 and streptavidin-allophycocyanin (APC) by the time-resolved fluorescence resonance energy transfer (TR-FRET) (HTRF® PI3K enzyme assay, Millipore). […] The PIP3 product formed by PI3K activity displaces biotin-PIP3 from the complex and results in a loss of energy transfer (decreasing signal).
# (§2) The compound to be tested was added, at the desired final concentrations, to a mixture of PIP2 substrate and recombinant PI3 kinase α, δ or γ enzymes (Millipore), and the mixture incubated for 2 hr at RT. […] A stopping solution containing biotinylated PIP3 and the detection mix containing the GST tagged GRP1 pleckstrin homology (PH) domain and fluorophores were then added and the mixture was incubated at RT for 15-18 hr, prior to detection in a fluorescence microplate reader (Varioskan® Flash, ThermoFisher Scientific).
# recombinant PI3 kinase α = recombinant PI3 kinase α (Homo sapiens (Human), UniProt P42336); experiment: as above; type: biochemical
# Chain of recombinant PI3 kinase α (P42336 whole entry): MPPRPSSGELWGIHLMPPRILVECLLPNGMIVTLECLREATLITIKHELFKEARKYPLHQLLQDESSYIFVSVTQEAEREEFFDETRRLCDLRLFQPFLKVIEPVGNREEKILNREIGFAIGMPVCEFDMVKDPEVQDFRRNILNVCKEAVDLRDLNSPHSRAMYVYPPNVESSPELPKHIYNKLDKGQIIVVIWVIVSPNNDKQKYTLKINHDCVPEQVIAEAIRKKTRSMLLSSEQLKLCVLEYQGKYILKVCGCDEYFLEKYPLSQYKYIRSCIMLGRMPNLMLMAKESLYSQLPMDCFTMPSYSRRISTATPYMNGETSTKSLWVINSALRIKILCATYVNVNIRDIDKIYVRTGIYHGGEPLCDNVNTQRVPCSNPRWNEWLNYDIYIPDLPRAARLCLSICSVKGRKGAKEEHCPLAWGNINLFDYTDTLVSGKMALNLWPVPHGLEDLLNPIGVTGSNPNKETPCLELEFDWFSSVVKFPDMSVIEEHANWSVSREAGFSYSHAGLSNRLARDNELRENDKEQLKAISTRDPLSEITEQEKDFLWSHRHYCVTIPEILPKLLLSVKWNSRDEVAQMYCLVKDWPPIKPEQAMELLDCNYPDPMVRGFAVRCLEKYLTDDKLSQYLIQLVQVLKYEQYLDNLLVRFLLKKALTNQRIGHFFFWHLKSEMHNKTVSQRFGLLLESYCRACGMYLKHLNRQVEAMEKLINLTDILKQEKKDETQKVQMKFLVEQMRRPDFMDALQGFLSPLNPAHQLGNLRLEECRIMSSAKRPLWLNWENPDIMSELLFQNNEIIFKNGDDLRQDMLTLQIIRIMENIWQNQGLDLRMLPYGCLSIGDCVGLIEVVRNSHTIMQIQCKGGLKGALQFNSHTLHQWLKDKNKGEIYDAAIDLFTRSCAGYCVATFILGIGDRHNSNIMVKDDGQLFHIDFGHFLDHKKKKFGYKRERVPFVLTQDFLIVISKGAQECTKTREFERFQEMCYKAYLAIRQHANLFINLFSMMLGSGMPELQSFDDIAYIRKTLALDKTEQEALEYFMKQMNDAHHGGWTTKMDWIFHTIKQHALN
# Chain of recombinant PI3 kinase α (P27986 whole entry partner): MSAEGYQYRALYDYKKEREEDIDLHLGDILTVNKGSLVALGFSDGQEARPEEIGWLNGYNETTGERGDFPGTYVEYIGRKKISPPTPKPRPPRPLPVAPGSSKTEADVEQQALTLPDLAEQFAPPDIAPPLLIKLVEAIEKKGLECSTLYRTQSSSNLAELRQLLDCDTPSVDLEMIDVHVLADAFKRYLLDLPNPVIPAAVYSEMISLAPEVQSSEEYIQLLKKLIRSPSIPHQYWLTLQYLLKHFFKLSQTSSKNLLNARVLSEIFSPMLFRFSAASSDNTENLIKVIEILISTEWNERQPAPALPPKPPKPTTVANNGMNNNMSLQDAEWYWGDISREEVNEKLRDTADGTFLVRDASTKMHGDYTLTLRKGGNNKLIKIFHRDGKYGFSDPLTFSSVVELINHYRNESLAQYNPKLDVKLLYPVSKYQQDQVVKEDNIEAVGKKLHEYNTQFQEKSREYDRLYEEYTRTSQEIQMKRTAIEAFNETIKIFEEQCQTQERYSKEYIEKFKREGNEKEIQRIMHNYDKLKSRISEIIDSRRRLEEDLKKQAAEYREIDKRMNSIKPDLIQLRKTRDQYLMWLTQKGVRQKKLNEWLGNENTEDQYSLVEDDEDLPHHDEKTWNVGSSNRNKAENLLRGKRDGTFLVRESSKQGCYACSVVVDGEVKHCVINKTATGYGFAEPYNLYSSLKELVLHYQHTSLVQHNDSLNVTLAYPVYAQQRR
# From the text: as §1, §2
# recombinant PI3 kinase γ = recombinant PI3 kinase γ (Homo sapiens (Human), UniProt P48736); experiment: as above; type: biochemical
# Chain of recombinant PI3 kinase γ (P48736 whole entry): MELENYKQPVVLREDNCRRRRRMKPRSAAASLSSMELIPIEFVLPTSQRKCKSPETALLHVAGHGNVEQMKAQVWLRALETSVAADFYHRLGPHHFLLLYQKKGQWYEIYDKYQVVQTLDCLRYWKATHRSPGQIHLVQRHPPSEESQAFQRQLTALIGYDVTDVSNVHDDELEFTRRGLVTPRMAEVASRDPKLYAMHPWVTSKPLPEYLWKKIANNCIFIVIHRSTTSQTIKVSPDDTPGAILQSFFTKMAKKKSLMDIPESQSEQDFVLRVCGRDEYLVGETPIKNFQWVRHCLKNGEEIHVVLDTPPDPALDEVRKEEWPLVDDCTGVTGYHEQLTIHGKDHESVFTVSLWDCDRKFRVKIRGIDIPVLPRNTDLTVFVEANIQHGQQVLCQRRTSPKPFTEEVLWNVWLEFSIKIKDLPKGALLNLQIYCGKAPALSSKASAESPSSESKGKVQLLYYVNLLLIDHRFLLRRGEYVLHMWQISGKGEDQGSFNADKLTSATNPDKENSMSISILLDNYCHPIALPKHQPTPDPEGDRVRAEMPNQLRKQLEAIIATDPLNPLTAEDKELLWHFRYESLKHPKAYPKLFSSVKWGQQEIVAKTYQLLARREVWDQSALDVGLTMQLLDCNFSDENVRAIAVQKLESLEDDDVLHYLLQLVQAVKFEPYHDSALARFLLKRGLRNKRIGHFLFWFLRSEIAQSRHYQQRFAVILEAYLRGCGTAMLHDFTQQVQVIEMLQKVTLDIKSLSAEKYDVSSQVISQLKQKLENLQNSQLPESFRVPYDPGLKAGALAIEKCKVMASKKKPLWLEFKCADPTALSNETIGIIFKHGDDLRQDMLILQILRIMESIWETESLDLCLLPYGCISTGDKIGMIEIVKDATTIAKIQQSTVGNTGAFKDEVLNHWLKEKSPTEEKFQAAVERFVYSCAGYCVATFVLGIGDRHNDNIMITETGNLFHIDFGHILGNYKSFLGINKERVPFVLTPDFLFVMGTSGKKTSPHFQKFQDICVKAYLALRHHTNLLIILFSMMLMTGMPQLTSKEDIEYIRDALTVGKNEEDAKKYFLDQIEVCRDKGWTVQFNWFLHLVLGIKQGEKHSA
# From the text: as §1, §2
# [1] = tested on: PMA-differentiated U937 cells; experiment: MTT Assay (cell viability); type: cell-based, Human; settings: percentage loss of cell viability; for Cell Viability MTT Assay in D-U937 cells at 4 hr: 4 hr in 5% FCS; for Cell Viability MTT Assay in D-U937 cells at 24 hr: 24 hr in 10% FCS
# Procedure: PMA-differentiated U937 cells were pre-incubated with compound for 4 hr in 5% FCS or 10% FCS for 24 hr. The supernatant was replaced with 200 μL of new media and 10 μL of MTT stock solution (5 mg/ml) added to each well. After 1 hr incubation, the media were removed, 200 μL of DMSO added to each well and the plates were shaken lightly for 1 hr prior to reading the absorbance at 550 nm. The percentage loss of cell viability was calculated for each well relative to vehicle (0.5% DMSO)-treatment (Table 3).
# [2] = tested on: H2O2 induced pAkt in D-U937 cells; experiment: PI3Kδ Cell Based Assay (H2O2 induced pAkt); settings: Homo sapiens, dU937
# Procedure: As a means of assessing PI3K 6 activation in response to stimuli, the phosphorylation status of the protein, Akt, a downstream product of PI3K6, signaling was determined. Human monocytic cells (U937 cells), were differentiated to macrophage-type cells by incubation with phorbol myristate acetate (PMA; 100 ng/mL) for 48 to 72 hr. […] The cells were washed with buffer (PBS containing 0.1% Triton X-100) and were incubated with blocking solution (1% BSA in PBS) for 1 hr and were then re-washed with buffer and incubated overnight with either anti-pAkt antibody or anti-pan-Akt antibody (both from Cell Signaling Technology). […] This reaction was stopped by addition of 100 μL of 1N H2SO4 solution. […] The ratio of pAkt signal to total Akt signal was used to quantitate the extent of PI3K δ activation. […] The IC50 values were calculated from the concentration-response curves generated by the serial dilutions of the test compounds (Table 3 and Table 4).
# [3] = activity range, read-out: PI3 Kinase Inhibition IC50 values at stated Isozyme δ
# [4] = activity range, read-out: PI3 Kinase Inhibition IC50 values at stated Isozyme α
# [5] = activity range, read-out: PI3 Kinase Inhibition IC50 values at stated Isozyme γ
# [6] = activity range, D-U937 cells, read-out: Cellular Activity IC50 values (H2O2 induced pAkt D-U937 Cells)
# Chain of recombinant PI3 kinase δ (O00329 whole entry): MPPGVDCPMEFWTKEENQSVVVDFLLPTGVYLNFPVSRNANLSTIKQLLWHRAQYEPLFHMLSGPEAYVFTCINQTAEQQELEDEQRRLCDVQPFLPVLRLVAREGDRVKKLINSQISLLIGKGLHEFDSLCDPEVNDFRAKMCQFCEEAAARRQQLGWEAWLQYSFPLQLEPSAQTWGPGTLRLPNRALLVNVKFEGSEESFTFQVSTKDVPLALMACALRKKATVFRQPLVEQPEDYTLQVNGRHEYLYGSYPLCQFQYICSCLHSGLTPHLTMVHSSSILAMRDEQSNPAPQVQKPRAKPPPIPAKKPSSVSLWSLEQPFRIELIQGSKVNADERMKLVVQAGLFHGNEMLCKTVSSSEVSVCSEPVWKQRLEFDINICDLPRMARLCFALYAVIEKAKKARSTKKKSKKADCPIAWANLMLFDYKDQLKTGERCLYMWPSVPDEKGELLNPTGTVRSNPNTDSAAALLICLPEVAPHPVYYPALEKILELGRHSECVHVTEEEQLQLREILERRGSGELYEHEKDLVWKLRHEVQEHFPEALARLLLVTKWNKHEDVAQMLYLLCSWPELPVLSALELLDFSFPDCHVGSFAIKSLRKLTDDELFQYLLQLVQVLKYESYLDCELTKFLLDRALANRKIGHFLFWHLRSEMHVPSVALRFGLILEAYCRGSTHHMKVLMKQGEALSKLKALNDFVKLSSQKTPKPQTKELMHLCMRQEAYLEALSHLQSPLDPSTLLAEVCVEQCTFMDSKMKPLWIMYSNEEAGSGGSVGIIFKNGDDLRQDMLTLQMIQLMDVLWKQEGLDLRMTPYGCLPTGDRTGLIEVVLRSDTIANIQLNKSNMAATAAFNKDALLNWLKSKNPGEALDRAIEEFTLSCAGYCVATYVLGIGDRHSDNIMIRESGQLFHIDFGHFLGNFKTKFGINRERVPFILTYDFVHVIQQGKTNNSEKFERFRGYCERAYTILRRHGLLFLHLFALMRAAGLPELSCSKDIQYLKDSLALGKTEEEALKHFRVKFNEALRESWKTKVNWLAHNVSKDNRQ
# Chain of recombinant PI3 kinase δ (P27986 whole entry partner): as the sequence (P27986 whole entry partner) above
Compound,IC50 (recombinant PI3 kinase δ; [3]) [nM],IC50 (recombinant PI3 kinase α; [4]) [nM],IC50 (recombinant PI3 kinase γ; [5]) [nM],"IC50 [2, 6] [nM]",IC50 (recombinant PI3 kinase δ; read-out: PI3 Kinase Inhibition IC50 values at stated Isozyme (nM) δ) [nM],IC50 (recombinant PI3 kinase α; read-out: PI3 Kinase Inhibition IC50 values at stated Isozyme (nM) α) [nM],IC50 (recombinant PI3 kinase γ; read-out: PI3 Kinase Inhibition IC50 values at stated Isozyme (nM) γ) [nM],IC50 ([2]; read-out: Cellular Activity IC50 values (H2O2 induced pAkt (nM) D-U937 Cells)) [nM],Cell Viability MTT Assay in D-U937 cells at 4 hr [1],Cell Viability MTT Assay in D-U937 cells at 24 hr [1]
"Nc1ncnc2c1c(-c1ccc(O)cc1)nn2Cc1nc2cccc(C#CCCCC(=O)N3CCOCC3)c2c(=O)n1Cc1cc2ccccc2s1 [Example 63, 2-((4-Amino-3-(4-hydroxyphenyl)-1H-pyrazolo[3,4-d]pyrimidin-1-yl)methyl)-3-(benzo[b]thiophen-2-ylmethyl)-5-(6-morpholino-6-oxohex-1-yn-1-yl)quinazolin-4(3H)-one]",< 50,50 to 1000,< 50,< 10,–,–,–,–,− (− <30%),− (− <30%)
"COc1cccc(Cn2c(Cn3nc(-c4ccc(O)cc4)c4c(N)ncnc43)nc3cccc(C#CCCCC(=O)N4CCOCC4)c3c2=O)c1F [Example 64, 2-((4-Amino-3-(4-hydroxyphenyl)-1H-pyrazolo[3,4-d]pyrimidin-1-yl)methyl)-3-(2-fluoro-3-methoxybenzyl)-5-(6-morpholino-6-oxohex-1-yn-1-yl)quinazolin-4(3H)-one]",< 50,50 to 1000,< 50,< 10,–,–,–,–,− (− <30%),− (− <30%)
"CN(C)C(=O)CCCC#Cc1cccc2nc(Cn3nc(-c4ccc(O)cc4)c4c(N)ncnc43)n(Cc3ccccc3Cl)c(=O)c12 [Example 88, 6-(2-((4-Amino-3-(4-hydroxyphenyl)-1H-pyrazolo[3,4-d]pyrimidin-1-yl)methyl)-3-(2-chlorobenzyl)-4-oxo-3,4-dihydroquinazolin-5-yl)-N,N-dimethylhex-5-ynamide]",< 50,50 to 1000,< 50,< 10,–,–,–,–,− (− <30%),− (− <30%)
"Nc1ncnc2c1c(-c1ccc(O)cc1)nn2Cc1nc2cccc(C#CCOc3ccccc3)c2c(=O)n1Cc1ccccc1Cl [Example 52, 2-((4-Amino-3-(4-hydroxyphenyl)-1H-pyrazolo[3,4-d]pyrimidin-1-yl)methyl)-3-(2-chlorobenzyl)-5-(3-phenoxyprop-1-ynyl)quinazolin-4(3H)-one]",< 50,50 to 1000,< 50,< 10,–,–,–,–,− (− <30%),− (− <30%)
"CN1CCCN(C(=O)CCCC#Cc2cccc3nc(Cn4nc(-c5ccc(O)cc5)c5c(N)ncnc54)n(Cc4ccccc4Cl)c(=O)c23)CC1 [Example 93, 2-((4-Amino-3-(4-hydroxyphenyl)-1H-pyrazolo[3,4-d]pyrimidin-1-yl)methyl)-3-(2-chlorobenzyl)-5-(6-(4-methyl-1,4-diazepan-1-yl)-6-oxohex-1-ynyl)quinazolin-4(3H)-one]",< 50,50 to 1000,< 50,< 10,–,–,–,–,− (− <30%),− (− <30%)
"Nc1ncnc2c1c(-c1cccc(O)c1)nn2Cc1nc2cccc(C#CCCCCC(=O)N3CCOCC3)c2c(=O)n1Cc1ccccc1Cl [Example 55, 2-((4-Amino-3-(3-hydroxyphenyl)-1H-pyrazolo[3,4-d]pyrimidin-1-yl)methyl)-3-(2-chlorobenzyl)-5-(7-morpholino-7-oxohept-1-yn-1-yl)quinazolin-4(3H)-one]",< 50,50 to 1000,< 50,< 10,–,–,–,–,− (− <30%),− (− <30%)
"COCCOCCOCC#Cc1cccc2nc(Cn3nc(-c4cccc(O)c4)c4c(N)ncnc43)n(Cc3ccccc3Cl)c(=O)c12 [Example 2, 2-((4-Amino-3-(3-hydroxyphenyl)-1H-pyrazolo[3,4-d]pyrimidin-1-yl)methyl)-3-(2-chlorobenzyl)-5-(3-(2-(2-methoxyethoxy)ethoxy)prop-1-yn-1-yl)quinazolin-4(3H)-one]",–,> 1000,–,< 10,–,–,–,–,− (− <30%),− (− <30%)
"CN(C)C1CCN(C(=O)CCCC#Cc2cccc3nc(Cn4nc(-c5cccc(O)c5)c5c(N)ncnc54)n(Cc4ccccc4Cl)c(=O)c23)C1 (stereo not drawn) [Example 92, 2-((4-Amino-3-(3-hydroxyphenyl)-1H-pyrazolo[3,4-d]pyrimidin-1-yl)methyl)-3-(2-chlorobenzyl)-5-(6-(3-(dimethylamino)pyrrolidin-1-yl)-6-oxohex-1-ynyl) quinazolin-4(3H)-one]",< 50,–,–,10 to 1000,–,–,–,–,− (− <30%),− (− <30%)

# More lines, main results first:
IC50 (recombinant PI3 kinase δ; [3]) [nM],IC50 (recombinant PI3 kinase α; [4]) [nM],IC50 (recombinant PI3 kinase γ; [5]) [nM],"IC50 [2, 6] [nM]",IC50 (recombinant PI3 kinase δ; read-out: PI3 Kinase Inhibition IC50 values at stated Isozyme (nM) δ) [nM],IC50 (recombinant PI3 kinase α; read-out: PI3 Kinase Inhibition IC50 values at stated Isozyme (nM) α) [nM],IC50 (recombinant PI3 kinase γ; read-out: PI3 Kinase Inhibition IC50 values at stated Isozyme (nM) γ) [nM],IC50 ([2]; read-out: Cellular Activity IC50 values (H2O2 induced pAkt (nM) D-U937 Cells)) [nM],Compound,Cell Viability MTT Assay in D-U937 cells at 4 hr [1],Cell Viability MTT Assay in D-U937 cells at 24 hr [1]
< 50,50 to 1000,50 to 1000,< 10,–,–,–,–,"C#Cc1cccc2nc(Cn3nc(-c4ccc(O)cc4)c4c(N)ncnc43)n(Cc3cc(OC)ccc3F)c(=O)c12 [Example 42, 2-((4-Amino-3-(4-hydroxyphenyl)-1H-pyrazolo[3,4-d]pyrimidin-1-yl)methyl)-5-ethynyl-3-(2-fluoro-5-methoxybenzyl)quinazolin-4(3H)-one]",− (− <30%),− (− <30%)
< 50,> 1000,< 50,< 10,3,1490,47,0.2,"Nc1ncnc2c1c(-c1ccc(O)cc1)nn2Cc1nc2cccc(C#CCCCC(=O)N3CCCC3)c2c(=O)n1Cc1ccccc1Cl [Example 89, 2-((4-Amino-3-(4-hydroxyphenyl)-1H-pyrazolo[3,4-d]pyrimidin-1-yl)methyl)-3-(2-chlorobenzyl)-5-(6-oxo-6-(pyrrolidin-1-yl)hex-1-yn-1-yl)quinazolin-4(3H)-one]",− (− <30%),− (− <30%)
< 50,50 to 1000,< 50,< 10,–,–,–,–,"Nc1ncnc2c1c(-c1cccc(O)c1)nn2Cc1nc2cccc(C#CCCCC(=O)N3CCC(N4CCOCC4)CC3)c2c(=O)n1Cc1ccccc1Cl [Example 70, 2-((4-Amino-3-(3-hydroxyphenyl)-1H-pyrazolo[3,4-d]pyrimidin-1-yl)methyl)-3-(2-chlorobenzyl)-5-(6-(4-morpholinopiperidin-1-yl)-6-oxohex-1-yn-1-yl)quinazolin-4(3H)-one]",− (− <30%),− (− <30%)
< 50,50 to 1000,< 50,< 10,–,–,–,–,"COCCN1CCN(C(=O)CCCC#Cc2cccc3nc(Cn4nc(-c5ccc(O)cc5)c5c(N)ncnc54)n(Cc4ccccc4Cl)c(=O)c23)CC1 [Example 77, 2-((4-Amino-3-(4-hydroxyphenyl)-1H-pyrazolo[3,4-d]pyrimidin-1-yl)methyl)-3-(2-chlorobenzyl)-5-(6-(4-(2-methoxyethyl)piperazin-1-yl)-6-oxohex-1-ynyl) quinazolin-4(3H)-one]",− (− <30%),− (− <30%)
< 50,50 to 1000,50 to 1000,< 10,–,–,–,–,"NC(=O)NCC#Cc1cccc2nc(Cn3nc(-c4ccc(O)cc4)c4c(N)ncnc43)n(Cc3ccccc3Cl)c(=O)c12 [Example 49, 1-(3-(2-((4-Amino-3-(4-hydroxyphenyl)-1H-pyrazolo[3,4-d]pyrimidin-1-yl)methyl)-3-(2-chlorobenzyl)-4-oxo-3,4-dihydroquinazolin-5-yl)prop-2-ynyl)urea]",− (− <30%),− (− <30%)
